{
  "source": "patent US20030236301A1",
  "about": "“Liposomal delivery of vitamin E based compounds” (priority 2001, published 2003)",
  "key": {"[1]": {"tested_on": "66 c1.4 GFP murine mammary tumor cells", "assay": "Tumor growth of 66 c1.4-GFP mammary tumor cells in Balb/c mice (tumor volume)", "conditions": "for inhibition of tumor growth: Example 18: liposomal formulation by aerosol", "experimental": "66 c1.4-GFP cells were harvested by trypsinization, centrifuged, resuspended in McCoy's media, containing no supplements at a density of 2×10^5/100 μl. Mice were injected in the inguinal area at a point equal distance between the 4th and 5th nipples on the right side using a 23 gauge needle.\n50 mice were assigned (10 per group) to aerosol treatment, aerosol control, oral treatment, oral control, or to the no treatment group so that the average tumor volume for all groups were closely matched. […] Tumors were measured using calipers every other day, and volumes were calculated using the formula: volume (mm^3) [width (mm)^2×length (mm)]/2. Body weights were determined weekly.\nBalb/c mice were injected with 200,000 66 c1.4 GFP cells subcutaneous in the mammary fat pad area between the 4th and 5th nipple on the right side of the body.\nMice are injected with 200,000 66 c1.4 GFP murine mammary tumor cells as described on day 0. Treatments are initiated on day 9 when tumors reached 1-3 mm in size. Aerosol treatments of α-TEA liposomes (5 mg α-TEA/mouse) are administered daily for 16 days (FIG. 8). Data represent the mean+/−Standard Error (SE), N=10 mice for control and treatment groups.\nBalb/c mice were injected s.c. with 2×10^5 66 c1.4-GFP cells in the inguinal area between the 4th and 5th nipple on the right side of the body. When tumors reached 2×2-4×4 mm (9 days after tumor injection), mice were placed into 5 groups ((Group 1: untreated control, Group 2: liposome/aerosol control, Group 3: liposomal α-TEA aerosol treatment, Group 4: peanut oil/gavage control, Group 5: α-TEA in peanut oil/gavage treatment) of 10 mice/group) such that the mean tumor volume of each group was closely matched. Daily treatments were initiated on day 9 after tumor injection.\nBalb/c mice were injected with 200,000 66 c1.4 GFP cells subcutaneous in the mammary fat pad area between the 4th and 5th nipple on the right side of the body. […] Animals were treated with α-TEA in liposome, vitamin E succinate in liposome, or control liposome alone via aerosol, 7 days per week, for 21 days. Animals were given 75 mg compound via nebulization per day such that each animal received 36 μg compound per day.\nThe size of the tumors, 9-21 days after injection of 200,000 66 c1.4 GFP cells between the 4th and 5th nipple on the right side of each mouse, is determined. Treatments are initiated on day 9 after tumor inoculation. Each group consists of n=10+/−SE. Gavage Treatment=Treatments of 5 mg of α-TEA in ethanol and peanut oil (0.1 ml volume) are administered daily starting on day 9 after tumor inoculation and continuing through day 21. Gavage Control=Mice received peanut oil and ethanol alone (0.1 ml volume)/daily, starting on day 9 after tumor inoculation and continuing through day 21. Data (tumor size) are depicted as the mean+/−standard error for days 9, 11, 13, 15, 17, 19, and 21.\nBalb/c mice were injected with 200,000 66 c1.4 GFP cells subcutaneous in the mammary fat pad area between the 4th and 5th nipple on the right side of the body. […] Animals were treated with α-TEA in liposome vitamin E succinate in liposome, or control liposome alone via oral gavage, 2 times per day, 7 days per week, for 21 days. Animals were given a total of 6 mg compound per day."}, "MDA-MB-435 GFP FL cells": {"tested_on": "MDA-MB-435 GFP FL cells", "assay": "Tumor growth of MDA-MB-435 GFP FL breast cancer cells in nude mice", "type": "in vivo, Nu/Nu athymic nude mice", "conditions": "Example 35: day 35", "description": "Animals were given a total of 8 mg compound per day. […] Alpha-TEA liposome gavage reduced tumor growth by 68, 75, 78, 79 and 79% on days 27, 29, 31, 33, and 35, respectively (FIG. 15).\nAnimals were […] 3 ppm methylselenocysteine (MSC) in water, α-TEA in liposome via aerosol, or gavaged 10 mg/kg b.w. trans-resveratrol (t-RES) in first 1:1. EtOH:physiological saline, and starting at day 24, 6.5% EtOH and 93.5% Neobee oil. A combination group was treated with each of the above three compounds, and a control group was treated with aerosolized liposome. 100 μl water, and 50 μl of the t-Res solvent. Animals were treated seven days a week, for 35+ days."}, "66 c1.4-GFP cells": {"tested_on": "66 c1.4-GFP cells", "assay": "Apoptosis by morphological evaluation of DAPI-stained nuclei", "conditions": "three days", "experimental": "Briefly, 1×10^5 cells/well in 12-well plates were cultured overnight to permit attachment. […] After treatment, floating cells plus scraped-released adherent cells were pelleted by centrifugation for 5 min at 350×g, washed one time with phosphate buffered saline (PBS; 137 mM NaCl, 2.7 mM KCL, 10.4 mM Na2HPO4, 10.5 mM KH2PO4; pH 7.2), and stained with 2 μg/ml of 4′,6-diamidino-2-phenylindole dihydrochloride (DAPI, Boehringer Mannheim, Indianapolis, Ind.) in 100% methanol for 15 min at 37° C.\nCells were viewed at 400× magnification with a Zeiss ICM 405 fluorescent microscope using a 487701 filter. […] Data are reported as percentage of apoptotic cells per cell population, i.e., number apoptotic cells/total number of cells counted. Three different microscopic fields were examined and 200 cells counted at each location for a minimum of 600 cells counted per slide. Apoptotic data are presented as mean±S.D. for three independently conducted experiments."}, "[2]": {"tested_on": "66 c1.4 GFP murine mammary tumor cells", "assay": "Lung and lymph node metastases of 66 c1.4-GFP tumors in Balb/c mice", "type": "in vivo", "conditions": "Example 31: liposomal formulation via gavage, 6 mg per day", "text": "Metastastic lesions in the five lung lobes were counted visually at time of sacrifice. Fluorescent green micro-metastatic cancer cell colonies in the left lung lobe and lymph nodes were counted using a Nikon fluorescence microscope (TE-200) with a 20×objective (200× magnification) and Image-Pro Plus (version 4.1; Media Cybernetics, Silver Spring, Md.) software associated with the microscope. Fluorescent lesions were separated into three size grouping: <5 μm, 5-10 μm and >10 μm.\nAt sacrifice, lungs were taken, examined visually for metastatic lesions and frozen for analyses of micrometastases by fluorescence.\nUse of a Nikon fluorescence microscope and Image-Pro Plus software permitted measurement of green fluorescing micrometastases into three size groupings of <5 μm, 5-10 μm and >10 μm.\nAt sacrifice, the left lung lobe of each mouse of flash frozen and saves for detection of GFP expressing micrometatstic lesions via fluorescent microscopy."}, "[3]": {"conditions": "Example 18: liposomal preparation delivered by aerosol"}, "[4]": {"conditions": "75 mg in nebulizer/day, day 15 of treatment"}, "[5]": {"conditions": "75 mg in nebulizer/day, day 17 of treatment"}},
  "data": [
    {"smiles": "Cc1c(O)cc2c(c1C)O[C@](C)(CCC[C@H](C)CCC[C@H](C)CCCC(C)C)CC2", "note": "[RRR-γ tocopherol, RRR-γ-tocopherol]", "values": [
      {"measurement": "effect on tumor growth", "setting": "[1]; [3]", "result": "enhanced tumor growth"},
      {"measurement": "tumor volume compared with control mice", "setting": "[1]; [3]", "result": "significantly higher"}
    ]},
    {"smiles": "Oc1ccc(/C=C/c2cc(O)cc(O)c2)cc1", "note": "[t-RES, trans-resveratrol, reference compound]", "values": [
      {"measurement": "increase of tumor volume from the control", "setting": "MDA-MB-435 GFP FL cells", "result": 61.2, "unit": "%"}
    ]},
    {"smiles": "Cc1c(C)c2c(c(C)c1OC(=O)CCC(=O)O)CC[C@@](C)(CCC[C@H](C)CCC[C@H](C)CCCC(C)C)O2", "note": "[vitamin E succinate, RRR-α-tocopheryl succinate, reference compound]", "values": [
      {"measurement": "apoptosis (percentage of apoptotic cells)", "setting": "66 c1.4-GFP cells; 2.5 μg/ml", "result": 3, "unit": "%"},
      {"measurement": "apoptosis (percentage of apoptotic cells)", "setting": "66 c1.4-GFP cells; 5 μg/ml", "result": 5, "unit": "%"},
      {"measurement": "nuclear morphology of DAPI stained cells", "setting": "66 c1.4-GFP cells; 10 μg/ml", "result": "exhibited condensation and fragmented DNA"},
      {"measurement": "reduction of tumor growth", "setting": "[1]; Example 26: liposome aerosol, 75 mg in nebulizer/day, day 17", "result": 76, "unit": "%"},
      {"measurement": "effect on tumor growth", "setting": "[1]; Example 30: liposome gavage, 6 mg per day, 21 days", "result": "did not reduce tumor growth"},
      {"measurement": "effect on lung metastasis", "setting": "[2]", "result": "no effect on lung metastasis"},
      {"measurement": "effect on lymph node micrometastatic lesions (FIG. 14B)", "setting": "[2]", "result": "not effective"}
    ]},
    {"smiles": "Cc1cc(O)cc2c1O[C@](C)(CCC[C@H](C)CCC[C@H](C)CCCC(C)C)CC2", "note": "[RRR-delta tocopherol, RRR-delta-tocopherol]", "values": [
      {"measurement": "inhibition of tumor growth", "setting": "[1]; [4]", "result": 25, "unit": "%"},
      {"measurement": "inhibition of tumor growth", "setting": "[1]; [5]", "result": 40, "unit": "%"}
    ]},
    {"smiles": "CC(C)=CCC/C(C)=C/CC/C(C)=C/CC[C@]1(C)CCc2c(C)c(O)c(C)c(C)c2O1", "note": "[RRR-α-tocotrienol]", "values": [
      {"measurement": "inhibition of tumor growth", "setting": "[1]; [4]", "result": 34, "unit": "%"},
      {"measurement": "inhibition of tumor growth", "setting": "[1]; [5]", "result": 27, "unit": "%"}
    ]},
    {"smiles": "CC(=O)Oc1c(C)c(C)c2c(c1C)CCC(C)(CCCC(C)CCCC(C)CCCC(C)C)O2", "note": "(racemic) [dl-α tocopherol acetate, dl-α-tocopherol acetate]", "values": [
      {"measurement": "inhibition of tumor growth", "setting": "[1]; [4]", "result": 29, "unit": "%"},
      {"measurement": "inhibition of tumor growth", "setting": "[1]; [5]", "result": 57, "unit": "%"}
    ]},
    {"smiles": "Cc1c(C)c2c(c(C)c1O)CC[C@@](C)(CCC[C@H](C)CCC[C@H](C)CCCC(C)C)O2", "note": "[RRR-α tocopherol, RRR-α-tocopherol]", "values": [
      {"measurement": "effect on tumor growth", "setting": "[1]; [3]", "result": "enhanced tumor growth"},
      {"measurement": "tumor volume compared with control mice", "setting": "[1]; [3]", "result": "not significantly greater"}
    ]}
  ]
}
